Data reported in PMC10449848, “Structural basis of lipid-droplet localization of 17-beta-hydroxysteroid dehydrogenase 13” (Nature Communications, 2023).
Changes are numbered by the printed parent chain. In names and notes the source's numbering stands. Several values for one entry are separate records, joined by “and”; a condition that tells them apart may be missing. Equal entries are not always repeated.

Experiments:
[1] = target: T1, human HSD17B11 (Homo sapiens, UniProt Q8NBQ5); experiment: Thermal shift assay (static light scattering, Tagg), human HSD17B11; assay type: binding; settings: Fig. 6d, 500 μM NAD+
T1 construct: human HSD17B11 (residues 2-300, NP_057329.3); 10x His (N); TEV protease site (N); made in house; host or cells: Sf9 (baculovirus)
T1 sequence (Q8NBQ5 2-300): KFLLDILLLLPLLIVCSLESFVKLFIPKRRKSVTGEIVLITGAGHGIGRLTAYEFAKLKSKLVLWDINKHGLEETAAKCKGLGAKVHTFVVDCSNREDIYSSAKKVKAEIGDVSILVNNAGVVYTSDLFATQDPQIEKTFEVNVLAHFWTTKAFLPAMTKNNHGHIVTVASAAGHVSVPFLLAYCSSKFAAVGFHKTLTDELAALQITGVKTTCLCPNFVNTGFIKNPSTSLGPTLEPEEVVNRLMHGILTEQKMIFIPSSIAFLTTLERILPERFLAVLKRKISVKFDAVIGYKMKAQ
Source text: Because of the low enzymatic activities of dog wild-type HSD17B13 (Fig. 6a) and HSD17B11 with β-estradiol, it was difficult to measure compound inhibition of these proteins in a biochemical assay and we instead utilized direct binding methods to compare compounds interaction with different proteins. To understand ligand binding, we tested several approaches such as surface plasmon resonance and isothermal calorimetry. Like many membrane/detergent-associated proteins, however, these methods were not amenable for HSD17B13. We next turned to thermal shift assays (TSA) for comparing ligand binding affinities. TSA measures the changes in the thermal denaturation temperature of a protein under different conditions such as the presence compound, changes in buffer conditions, or sequence mutations. There are various readouts including intrinsic fluorescence or light scattering signals. We chose the static light scattering methods to detect the temperatures at which our proteins start to aggregate (Tagg), which are more suitable for membrane proteins that require detergent micelles for stability. Given that in theory[51] and in practice Tagg continues to increase with concentration of ligands far above their IC50s, we used high cofactor and inhibitor concentrations in the TSA experiments to maximize the ligand binding signal.
(§1) TSA studies were run on the UNit instrument (Unchained Labs, CA, USA). Experiments were run in either 25 mM sodium phosphate pH 7, 150 mM NaCl, 10% glycerol, 1 mM TCEP, 0.05% DDM, + different cofactors (NAD^+, NADH, NADP, NADPH; MilliporeSigma) or 25 mM HEPES pH 7.2, 300 mM NaCl, 0.5 mM TCEP, 0.05% DDM, 10% glycerol, ±500 µM NAD^+, and ±100 µM compound 1 (from 2 mM DMSO stock) or DMSO or 50 mM Hepes pH 7.5, 300 mM NaCl, 0.5 mM TCEP, 0.05% DDM, 500 µM NAD^+, ± 50 µM compounds (from 2 mM stock) or DMSO. Protein aggregation was measured by static light scattering at 266 and 473 nm with a 1 °C/sec ramp rate from 20-80 °C. The data was processed using the UNcle software (Unchained Labs, CA, USA), and temperatures at which the protein started aggregation were recorded as Tagg. Reported Tagg and analysis were based on measurements at 266 nm unless otherwise indicated. The protein concentration used was 10.4 μM.

[2] = target: T2, human HSD17B13 (Homo sapiens, UniProt Q7Z5P4); experiment: Thermal shift assay (static light scattering, Tagg), human HSD17B13; assay type: binding; settings: Fig. 6c; 500 μM NAD+ alone, no compound
T2 construct: human HSD17B13 (residues 2-300, NP_835236.2); 10x His (N); TEV protease site (N); made in house; host or cells: Sf9 (baculovirus)
T2 sequence (Q7Z5P4 2-300): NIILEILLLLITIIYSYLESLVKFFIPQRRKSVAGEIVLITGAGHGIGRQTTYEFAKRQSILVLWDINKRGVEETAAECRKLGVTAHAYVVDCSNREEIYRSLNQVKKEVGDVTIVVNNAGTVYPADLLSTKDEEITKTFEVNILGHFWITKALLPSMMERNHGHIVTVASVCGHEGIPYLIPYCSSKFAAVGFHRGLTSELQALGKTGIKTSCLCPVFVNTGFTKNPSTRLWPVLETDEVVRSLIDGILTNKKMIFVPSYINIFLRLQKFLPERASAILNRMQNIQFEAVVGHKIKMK
Source text: To understand ligand binding, we tested several approaches such as surface plasmon resonance and isothermal calorimetry. […] We next turned to thermal shift assays (TSA) for comparing ligand binding affinities. TSA measures the changes in the thermal denaturation temperature of a protein under different conditions such as the presence compound, changes in buffer conditions, or sequence mutations. There are various readouts including intrinsic fluorescence or light scattering signals. We chose the static light scattering methods to detect the temperatures at which our proteins start to aggregate (Tagg), which are more suitable for membrane proteins that require detergent micelles for stability.
as §1, with “indicated.” for “indicated. The protein concentration used was 10.4 μM.”

[3] = target: human mutant HSD17B13 (Q60K/I62R/R71H/E161K) (human) (UniProt Q7Z5P4); experiment: crystal structure; human mutant HSD17B13 with 1 mM NAD+, 1 mM compound 2 and 0.5% β-octyl-glucoside; 25% PEG3350, 0.1 M Bis-Tris pH 5.5, 0.2 M Li2SO4; room temperature
[4] = target: the molecule itself; experiment: crystal structure; dog HSD17B13 at 12 mg/ml with 1 mM NAD+, 1 mM compound 1 and 0.125% β-octyl-glucoside; 30% PEG3350, 0.2 M ammonium chloride; room temperature; apo crystals by soaking with buffer containing NAD+ only

## Cc1ccc(S(=O)(=O)c2cc(C)cc(S(=O)(=O)Nc3ccc(C(=O)O)cc3)c2C)cc1 [Compound 2]
[1]
  effect on protein stability in TSA: neither 1 nor 2 showed an effect on protein stability
[1]; 50 µM compound
  Tagg: 40.37 °C and 38.02 °C and 40.65 °C and 41.03 °C and 39.22 °C and 40.82 °C and 39.77 °C and 38.1 °C

## NC(=O)c1ccc[n+]([C@@H]2O[C@H](COP(=O)([O-])OP(=O)(O)OC[C@H]3O[C@@H](n4cnc5c(N)ncnc54)[C@H](O)[C@@H]3O)[C@@H](O)[C@H]2O)c1 [NAD, nicotinamide adenine dinucleotide]
[2]
  Tagg, individual measurements: 43.6 °C (2×) and 38.9 °C and 40.5 °C and 42 °C and 41.7 °C (2×) and 41 °C

## human mutant HSD17B13 (Q60K/I62R/R71H/E161K) (from UniProt Q7Z5P4-1 20-300) (enzyme)
[3]
  stoichiometry N: 2

B1: dog wild-type HSD17B13 (hydroxysteroid 17-beta-dehydrogenase 13) (enzyme, UniProt A0A8C0PP93 1-300, looked up)
chain: MNIILDLLLLLLTIIYSYLEALVKVFFPRKRKSVAGEIVLITGAGHGIGRWTAYEFAKQKSRLVLWDINKHGVEETAAECRKLGATVHTFVVDCGNREDIYNSVKQVKKEVGDVTILVNNAGTVYPADLLSTKDEEITKTFEINILGHFWITKALLPSMIKRNHGHIVTVASVCGHGVIPYLIPYCSSKFAAVGFHRALTLELQTLGITGIKTSCLCPVFVNTGFTKNPSTRLWPILETDTVARSLIDGILTNKKMIFVPSYYNIYLILDKFLPERALAAINHLQNIQFEAVIGHKTRMK
notes: HSD17B13, dog, AA1-300 of XP_038300006.1; Crystallised with NAD+ and compound 1; the apo (NAD+ only) crystals were made by soaking compound 1 out; It is held in two of the entries PDB 8G84, 8G89, 8G93 and 8G9V; also called Dog WT; dog WT HSD17B13; source: Sf9 (baculovirus), solubilised from membranes with C12E8, purified (NiNTA, SEC)
[4]
  stoichiometry N: 2

B2: dog mutant HSD17B13 (G177E/V178G/T205A/I293V) (enzyme, UniProt A0A8C0PP93 1-300, looked up)
chain: B1 chain with G177E, V178G, T205A, I293V
notes: HSD17B13, dog, AA1-300 of XP_038300006.1, with four residues at the compound 1 site changed to the human ones; It is held in one of the entries PDB 8G84, 8G89, 8G93 and 8G9V; also called dog quadruple mutant; mutated dog HSD17B13; source: Sf9 (baculovirus), solubilised from membranes with C12E8, purified (NiNTA, SEC)
[4]
  stoichiometry N: 2
